Test results reported in PMC8291583, “Design, synthesis, and evaluation of 3,7-substituted coumarin derivatives as multifunctional Alzheimer’s disease agents” (Journal of Enzyme Inhibition and Medicinal Chemistry, 2021).

Legend:
[1] = system: MPP+-compromised SH-SY5Y neuroblastoma cells; type: cell-based, human; conditions: 10 µM compound, 2000 µM MPP+; for MPP+ neuroprotection (difference in percentage cell viability vs MPP+ only treated cells): 2 h pre-treatment, 24 h, SH-SY5Y; for survival rate of MPP+-treated cells: untreated control = 100%
Description: SH-SY5Y cells were seeded onto a 96-well plate in a growth medium at a density of 10,000 cells/well. Cells were pre-treated with test compounds at a concentration of 10 µM and thereafter 2000 µM MPP^+ following a 2-h incubation period. Afterwards, cells were incubated for 24 h and MTT colorimetric assay was used to measure cell viability relative to untreated control. To determine the data’s statistical significance, the One-way ANOVA Turkey’s multiple comparison test was conducted on all experimental replicates using GraphPad Prism® 8 (San Diego, USA).
The SH-SY5Y cells were pre-treated with 10 µM of the test compounds for 2 h followed by the addition of 2000 µM of MPP^+.

[2] = system: SH-SY5Y neuroblastoma cells; experiment: MTT cytotoxicity assay; type: cell-based, human; conditions: 48 h
Description: The human neuroblastoma SH-SY5Y cells were generously donated by collaborators from the Blackburn Laboratory, University of Cape Town. Cells were cultured in monolayer in Dulbecco’s Modified Eagle Medium (DMEM, Gibco, Life Technologies Corporation UK), supplemented with 10% foetal bovine serum (FBS, Gibco, Life Technologies Corporation, Paisley, UK), 100 U/ml penicillin, and 100 µg/ml streptomycin (Lonza Group Ltd., Verviers Belgium). Cultures were incubated at 37 °C in a humidified atmosphere with 5% CO2. The growth medium was replaced every 3 days and cells were sub-cultured when they attained 70 to 80% confluency using a solution of 0.25% trypsin EDTA (Lonza Group Ltd., Verviers, Belgium).
SH-SY5Y cells were plated in growth medium in the flat bottom 96 well plates at a density of approximately 7500 cells/well. The cells were allowed to adhere to the plate surface for 24 h and following this their media were replenished with fresh media containing the test compounds at 10 µM, 50 µM and 100 µM concentrations dissolved in DMSO. Vehicle control cells were treated with DMSO, at a concentration similar to that of the highest concentration of the test compounds. Following an incubation period of 48 h, 10 µl of MTT solution (5 mg/ml) was added to each well. This was further incubated for 4 h and the formazan formed was solubilised with 100 µl of DMSO. The plates were read using a BMG Labtech Omega® POLARStar plate reader spectrophotometer (Ortenberg, Germany) to determine the absorbance recorded at a wavelength of 570 nm. The percentage cell viability was calculated relative to the vehicle control using the following formula: Cellviability%=(Absorbanceoftreatedwell/Absorbanceofuntreatedwell)×100 [drawing 1]

[3] = system: Aβ 25–35 treated SH-SY5Y cells; experiment: Amyloid-beta 25–35 induced neurotoxicity (MTT); type: cell-based, human; conditions: 10 µM to 100 µM compound, Aβ 25–35 20 µM, 24 h
Description: Human neuroblastoma cells (SH-SY5Y) were grown in a culture medium (DMEM/F-12) and supplemented with 10% foetal bovine serum. Prophylactically, 1% v/v of penicillin/streptomycin was added to the medium. Cells were maintained by incubation at 37 °C with 5% carbon dioxide. All experiments were performed by seeding the cells into 24-well plates. Once confluent, the cells were then pre-treated with compounds 6 and 7 (10 µM) for 1 h, followed by Aβ 25–35 addition (20 µM) and incubated for 24 h. The untreated control cells were treated with DMEM which contained DMSO and were incubated in the same manner as the treated cells. […] The level of significance was analysed using One-way ANOVA statistical analysis and expressed using the p-value.
The accumulation of extracellular Aβ plaques has been marked as one of the pathological hallmarks of neurotoxicity associated with AD[59–61] and coumarin moieties have previously shown to inhibit Aβ plaque formation and Aβ induced neurotoxicity[62]^,[63]. To further explore the neuroprotective potential of the propargylamine-containing coumarin derivatives 6 and 7, their ability to curb neurotoxicity induced by the amyloid-β (Aβ) protein was thus assessed according to the method described in the experimental section. […]

recombinant human MAO-B = recombinant human MAO-B (Homo sapiens, UniProt P27338); type: biochemical; conditions: preincubation 0-60 min, inhibitor about twofold IC50
Chain of recombinant human MAO-B (P27338 whole entry): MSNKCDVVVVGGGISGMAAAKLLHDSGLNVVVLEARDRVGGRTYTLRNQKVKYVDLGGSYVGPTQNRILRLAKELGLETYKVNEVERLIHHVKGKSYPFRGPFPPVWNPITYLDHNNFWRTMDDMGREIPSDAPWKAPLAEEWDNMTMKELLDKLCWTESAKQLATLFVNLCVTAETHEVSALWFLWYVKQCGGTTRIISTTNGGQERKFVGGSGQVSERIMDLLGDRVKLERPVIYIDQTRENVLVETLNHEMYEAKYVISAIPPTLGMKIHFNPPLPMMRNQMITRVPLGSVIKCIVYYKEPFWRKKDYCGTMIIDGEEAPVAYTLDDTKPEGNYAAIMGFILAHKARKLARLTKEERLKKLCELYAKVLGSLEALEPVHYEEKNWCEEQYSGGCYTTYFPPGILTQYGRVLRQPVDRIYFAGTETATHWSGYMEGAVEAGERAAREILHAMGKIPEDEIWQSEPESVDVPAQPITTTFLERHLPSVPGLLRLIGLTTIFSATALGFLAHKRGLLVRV
Description: The concentration of inhibitor in these incubations was approximately twofold the measured IC50 value for the inhibition of the MAO-B enzyme. Potassium phosphate buffer (100 mM, pH 7.4, made isotonic with NaCl) was used as the incubation medium. A final concentration of 30 hx00B5;M kynuramine for MAO-B was then added to the preincubated enzyme preparations and the resulting 250 µl reactions were incubated at 37 °C for 15 min. The reactions were terminated with the addition of 200 µl NaOH (2 N) and a volume of 600 µl distilled water was added to each reaction. The fluorescence of the MAO-B generated 4-hydroxyquinoline in the supernatant fractions were measured using a fluorescent microplate reader at an excitation wavelength of 310 nm and an emission wavelength of 400 nm. Time-dependent graphs were plotted against the relative fluorescent unit readings (RFU).
To determine the binding mode of the studied compounds on MAO-B, the time dependency of enzyme inhibition was measured. If the compounds form a covalent or irreversible adduct with the enzyme, a time-dependent reduction of enzyme activity would be expected. […] For this purpose, the concentrations of the test compounds chosen were approximately twofold the measured IC50 values for the inhibition of the respective enzymes.

Row | Structure (SMILES) | MPP+ neuroprotection (difference in percentage cell viability vs MPP+ only treated cells) [1] [%] | cell survival (MTT) ([2]; 50 µM) [%] | cell survival (MTT) ([2]; 100 µM) [%] | neuroprotection against Aβ 25–35 cytotoxicity [3] | survival rate of MPP+-treated cells [1] [%] | mode of MAO-B inhibition (time dependency) (recombinant human MAO-B)
1 | O=c1oc2cc(OCCc3ccccc3)ccc2cc1CBr [Compound 4, 3-(bromomethyl)-7-(2-phenylethoxy)-2H-1-benzopyran-2-one] | 22.11 | 65 | 7 | – | – | –
2 | CCN(CC)C(=O)Oc1ccc2cc(CBr)c(=O)oc2c1 [Compound 5, 3-(bromomethyl)-2-oxo-2H-1-benzopyran-7-yl-diethylcarbamate] | 21.86 | 0 | 0 | – | – | –
3 | C#CCNCc1cc2ccc(OCCc3ccccc3)cc2oc1=O [Compound 6, 7-(2-phenylethoxy)-3-{[(prop-2-yn-1-yl)amino]methyl}-2H-1-benzopyran-2-one] | 35.96 | – | – | did not show any significant ability to mitigate the cytotoxic effects | 92 | reversible inhibitors of MAO-B
4 | C#CCNCc1cc2ccc(OC(=O)N(CC)CC)cc2oc1=O [Compound 7, 2-oxo-3-{[(prop-2-yn-1-yl)amino]methyl}-2H-1-benzopyran-7-yl-diethylcarbamate] | 28.19 | – | – | did not show any significant ability to mitigate the cytotoxic effects | 85 | reversible inhibitors of MAO-B
